Reference: publication PMC7588913, “A Peptide Found in Human Serum, Derived from the C-Terminus of Albumin, Shows Antifungal Activity In Vitro and In Vivo” (Microorganisms, 2020)
Like-named read-outs stand apart in the source and are kept apart here. Where a SMILES comes first, the peptide text is derived from it.

Key:
C. albicans SC5314 = test: Colony forming unit (CFU) candidacidal assay; format: cell-based, Candida albicans; conditions: 100 μg/mL vs reference strain C. albicans SC5314, CFU assay
Method: The fungicidal activity of the selected peptides was evaluated in vitro by a previously described colony forming unit (CFU) assay. All peptides were preliminarily tested at the concentration of 100 μg/mL vs. the reference strain C. albicans SC5314. […] After incubation at 37 °C for 6 h in the presence or absence (control growth) of the peptides, fungal cell suspensions (approximately 500 cells/100 μL of distilled water) were spread on Sabouraud Dextrose agar plates. After incubation at 30 °C for 48–72 h, CFUs were enumerated. Each assay was carried out in triplicate and at least 2 independent experiments were performed for each condition. EC50 values were calculated by nonlinear regression analysis using Graph Pad Prism 4.01 software, San Diego, CA, USA. Time kinetics of K13L-mediated killing against the reference C. albicans strain was determined by CFU assays, as described above, after incubation of yeast cells for 30 min, 1, 2, 4 and 6 h with K13L at different concentrations.

human erythrocytes = format: cell-based
Method: (§1) The hemolytic and cytotoxic activity of the selected peptides (25, 50 and 100 μM) was evaluated as previously described. For the evaluation of hemolytic activity, peptides were added to human erythrocytes (blood group 0 Rh+, final concentration, 2.5% v/v) and hemoglobin release was estimated after 30 and 120 min incubation by measuring the absorbance of the supernatant at 540 nm. Erythrocytes suspended in phosphate buffered saline (PBS) and Triton 1% were the controls for zero (blank) and 100% hemolysis, respectively. Cytotoxicity against Rhesus monkey kidney epithelial cells (LLC-MK2 line) treated with peptides for 24 h was assessed after resazurin addition by measuring fluorescence intensity at 572 nm. Cells in medium without peptide served as control (100% viability). Each assay was carried out in duplicate and at least 2 independent replicates were performed for each experiment.
(§2) Data are reported as the mean ± SD. Statistical significance was assessed by t test, p < 0.05 was considered significant.

LLC-MK2 cells = format: cell-based, Rhesus monkey
Method: as §1, §2

Galleria mellonella = test: In vivo toxicity in Galleria mellonella larvae; conditions: K13L 33.33 mg/kg into the haemocoel, 37 °C, monitored 9 days, Mantel–Cox log-rank test
Method: The potential therapeutic activity of K13L was evaluated by the G. mellonella model of experimental candidiasis, according to a previously described procedure. To preliminarily evaluate in vivo toxicity, a solution of K13L (33.33 mg/kg) was inoculated directly into the haemocoel, via the last left pro-leg, in larvae at their final instar stage (body weight, 300 ± 20 mg, 10 μL/larva). Larvae inoculated with 10 μL of saline solution and untouched larvae served as controls. All animals were incubated at 37 °C in the dark and monitored daily for survival for 9 days. For the evaluation of therapeutic activity, larvae (16/group) were challenged with C. albicans SC5314 (5 × 10^5 yeast cells/larva, 10 μL) via the last left pro-leg. A solution of K13L (16.66 mg/kg,) or saline (control) was injected 60 min later, via the last right proleg (10 μL). Larvae were monitored daily for 9 days after infection. The log rank (Mantel–Cox) test was used to compare survival curves by Graph Pad Prism software.

Structure (SMILES)	Fungicidal activity in preliminary assay (C. albicans SC5314)	Hemolysis (%) (human erythrocytes; 25 µM)	Hemolysis (%) (human erythrocytes; 50 µM)	Cell Viability (%) (LLC-MK2 cells; 25 µM)	Cell Viability (%) (LLC-MK2 cells; 50 µM)	Cell Viability (%) (LLC-MK2 cells; 100 µM)	Survival of larvae vs saline-inoculated larvae (in vivo toxicity) (Galleria mellonella)
C[C@H](NC(=O)[C@H](CCC(=O)O)NC(=O)[C@H](CO)NC(=O)CNC(=O)[C@H](C)NC(=O)[C@H](CCC(=O)O)NC(=O)[C@@H](N)CC(=O)O)C(=O)N[C@@H](CC(=O)O)C(=O)N[C@@H](Cc1c[nH]cn1)C(=O)N[C@@H](CCC(=O)O)C(=O)NCC(=O)N[C@H](C(=O)N[C@@H](Cc1c[nH]cn1)C(=O)N[C@@H](CO)C(=O)N[C@H](C(=O)O)[C@@H](C)O)[C@@H](C)O [Peptide D15T] (H-DEAGSEADHEGTHST-OH; N-terminus and C-terminus assumed)	no activity	0.00%	0.00%	108.50 ± 0.92%	107.55 ± 1.48%	108.50 ± 5.15%	
CC(C)C[C@H](NC(=O)[C@H](Cc1ccccc1)NC(=O)[C@H](CC(=O)O)NC(=O)CNC(=O)[C@H](CCC(=O)O)NC(=O)CNC(=O)[C@H](CO)NC(=O)[C@@H](N)CC(=O)O)C(=O)N[C@@H](C)C(=O)N[C@@H](CCC(=O)O)C(=O)NCC(=O)NCC(=O)NCC(=O)N[C@H](C(=O)N[C@@H](CCCNC(=N)N)C(=O)O)C(C)C [Peptide D15R] (H-DSGEGDFLAEGGGVR-OH; N-terminus and C-terminus assumed)	no activity			101.32 ± 1.92%	101.25 ± 0.19%	103.00 ± 1.49%	
CC(C)[C@H](NC(=O)[C@@H](NC(=O)[C@H](Cc1ccccc1)NC(=O)CNC(=O)[C@H](CCC(=O)O)NC(=O)[C@H](CC(N)=O)NC(=O)[C@H](CCC(=O)O)NC(=O)[C@H](CCCCN)NC(=O)[C@@H](NC(=O)[C@H](CCC(=O)O)NC(=O)[C@H](CCC(=O)O)NC(=O)[C@@H](N)CO)[C@@H](C)O)[C@@H](C)O)C(=O)N[C@H](C(=O)N[C@@H](C)C(=O)N[C@@H](CCC(=O)O)C(=O)NCC(=O)N[C@@H](CCCCN)C(=O)O)[C@@H](C)O [Peptide S17K] (H-SEETKENEGFTVTAEGK-OH; N-terminus and C-terminus assumed)	no activity	0.00%		103.47 ± 2.00%	102.69 ± 1.37%	101.73 ± 1.82%	
CC[C@H](C)[C@H](NC(=O)[C@H](CCCCN)NC(=O)[C@H](CO)NC(=O)CNC(=O)[C@H](CC(C)C)NC(=O)[C@H](CO)NC(=O)[C@H](Cc1ccccc1)NC(=O)[C@H](CCC(N)=O)NC(=O)[C@H](CC(C)C)NC(=O)[C@H](CCC(=O)O)NC(=O)[C@H](CCC(=O)O)NC(=O)[C@H](CCC(=O)O)NC(=O)[C@H](CC(C)C)NC(=O)CN)C(=O)N[C@@H](CC(N)=O)C(=O)N[C@H](C(=O)N[C@@H](CCCCN)C(=O)O)C(C)C [Peptide G17K] (H-GLEEELQFSLGSKINVK-OH)		0.00%		99.07 ± 1.57%	99.73 ± 0.45%	99.07 ± 1.57%	
CC(C)C[C@H](NC(=O)CNC(=O)[C@H](CC(C)C)NC(=O)[C@H](C)NC(=O)[C@H](C)NC(=O)[C@H](CCC(N)=O)NC(=O)[C@H](CO)NC(=O)[C@H](C)NC(=O)[C@H](C)NC(=O)[C@@H](NC(=O)[C@H](CC(C)C)NC(=O)[C@H](CCCCN)NC(=O)[C@@H](N)CCCCN)C(C)C)C(=O)O [Peptide K13L] (H-KKLVAASQAALGL-OH)				105.95 ± 1.47%	105.04 ± 0.20%	101.26 ± 0.38%	No significant difference in survival
